ChEMBL document CHEMBL5550146, “Design, synthesis, and biological evaluation of novel sesquiterpene lactone derivatives as PKM2 activators with potent anti-ulcerative colitis activities” (Eur J Med Chem, 2024)
The source made the active and inactive calls. No cut-off for these calls is given here.

How the values were obtained:
[1] = Inhibition of C57BL/6 mouse Th17 cells differentiation from CD4+ T cells assessed as frequency of CD4+ IL-17A+ Th17 cells at 0.1 uM incubated for 96 hrs by flow cytometric analysis (reference value: 23.52 %); type: functional; set-up: scale not given: the % may be the effect or the level left
[2] = tested on: Mus musculus; experiment: Antiinflammatory activity in DSS-induced colitis female C57BL/6 mouse model assessed as improvement in crypt deformation at 5 to 10 mg/kg, ip administered for 12 days with subsequent treatment of DSS for 9 days followed by drinking water for 3 days by H and E staining based analysis; type: functional, organism-based; details: dose 5-10 mg/kg, time 12.0 day
[3] = tested on: Th17; experiment: Inhibition of C57BL/6 mouse Th17 cell differentiation from CD4+ T cells assessed as reduction in Glut1 mRNA level; type: functional, cell-based
[4] = target: T1, Pyruvate kinase PKM (Homo sapiens, UniProt P14618); experiment: Activation of recombinant human PKM2 incubated for 40 mins by pyruvate kinase assay
Target sequence in this assay (P14618 whole entry): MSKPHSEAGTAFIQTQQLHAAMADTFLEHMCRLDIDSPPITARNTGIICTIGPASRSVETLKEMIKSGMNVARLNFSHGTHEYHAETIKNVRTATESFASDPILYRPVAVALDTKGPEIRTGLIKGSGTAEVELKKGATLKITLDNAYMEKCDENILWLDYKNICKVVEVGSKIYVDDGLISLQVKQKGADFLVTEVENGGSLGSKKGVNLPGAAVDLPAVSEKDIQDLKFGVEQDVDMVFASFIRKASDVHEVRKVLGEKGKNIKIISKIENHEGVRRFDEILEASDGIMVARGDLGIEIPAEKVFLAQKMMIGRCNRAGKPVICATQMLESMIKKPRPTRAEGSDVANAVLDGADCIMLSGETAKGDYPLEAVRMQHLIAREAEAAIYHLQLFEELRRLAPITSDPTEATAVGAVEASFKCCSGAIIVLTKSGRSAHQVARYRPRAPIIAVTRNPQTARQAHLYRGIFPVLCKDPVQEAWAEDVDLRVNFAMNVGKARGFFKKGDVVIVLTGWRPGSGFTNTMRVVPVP

[5] = tested on: Regulatory T cell; experiment: Inhibition of C57BL/6 mouse Regulatory T cells differentiation from CD4+ T cells assessed as change in IL-10 mRNA expression at 0.1 to 1 uM incubated for 96 hrs by qPCR analysis; type: functional, cell-based; details: dose 0.1-1 µM
[6] = target: T1, Pyruvate kinase PKM; experiment: Binding affinity to PKM2 (unknown origin) assessed as dissociation rate constant (Kd) at 3.125 to 50 uM by SPR analysis
Target sequence in this assay (P14618 whole entry): as above

[7] = tested on: Th17; experiment: Inhibition of C57BL/6 mouse Th17 cell differentiation from CD4+ T cells assessed as reduction in HK2 protein level; type: functional, cell-based
[8] = tested on: Th17; experiment: Inhibition of C57BL/6 mouse Th17 cell differentiation from CD4+ T cells assessed as reduction in […] mRNA expression at 0.1 uM incubated for 96 hrs by qPCR analysis; type: functional, cell-based
[9] = tested on: Th17; experiment: Downregulation of total PKM2 expression in C57BL/6 mouse Th17 cells differentiated from CD4+ T cells at 0.1 to 1 uM incubated for 48 hrs by Western blot analysis; type: functional, cell-based; details: dose 0.1-1 µM
[10] = tested on: Th17; experiment: Inhibition of C57BL/6 mouse Th17 cell differentiation from CD4+ T cells assessed as reduction in IL-17a mRNA expression at 0.1 uM incubated for 96 hrs by qPCR analysis; type: functional, cell-based
[11] = tested on: Th17; experiment: Effect on PKM2 expression in cytoplasm of C57BL/6 mouse Th17 cells differentiated from CD4+ T cells at 0.1 to 1 uM incubated for 48 hrs by Western blot analysis; type: functional, cell-based; details: dose 0.1-1 µM
[12] = tested on: Mus musculus; experiment: Antiinflammatory activity in DSS-induced colitis female C57BL/6 mouse model assessed as reduction in body weight loss at 5 to 10 mg/kg, ip administered for 12 days with subsequent treatment of DSS for 9 days followed by drinking water for 3 days; type: functional, organism-based; details: dose 5-10 mg/kg, time 12.0 day
[13] = target: T1, Pyruvate kinase PKM; experiment: Binding affinity to PKM2 (unknown origin) assessed as association rate constant (Ka) at 3.125 to 50 uM by SPR analysis; details: filed as activator, dose 3.125-50 µM
Target sequence in this assay (P14618 2-531 limits assumed): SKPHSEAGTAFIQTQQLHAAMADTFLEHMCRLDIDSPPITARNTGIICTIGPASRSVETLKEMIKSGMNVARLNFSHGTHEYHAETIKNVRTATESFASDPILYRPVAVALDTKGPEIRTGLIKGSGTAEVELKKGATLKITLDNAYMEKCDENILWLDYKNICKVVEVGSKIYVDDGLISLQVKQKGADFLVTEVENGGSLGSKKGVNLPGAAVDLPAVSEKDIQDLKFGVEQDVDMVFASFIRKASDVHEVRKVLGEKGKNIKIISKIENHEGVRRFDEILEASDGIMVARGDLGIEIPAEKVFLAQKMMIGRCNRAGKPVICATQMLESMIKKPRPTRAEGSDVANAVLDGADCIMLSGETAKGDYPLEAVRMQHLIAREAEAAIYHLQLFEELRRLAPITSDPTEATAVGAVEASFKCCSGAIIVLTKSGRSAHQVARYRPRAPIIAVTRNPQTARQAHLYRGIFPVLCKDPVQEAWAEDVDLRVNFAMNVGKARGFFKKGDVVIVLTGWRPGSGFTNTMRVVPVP

[14] = Inhibition of C57BL/6 mouse Th17 cells differentiation from CD4+ T cells assessed as frequency of CD4+ IL-17A+ Th17 cells at 0.3 uM incubated for 96 hrs by flow cytometric analysis (reference value: 23.52 %); type: functional; set-up: scale not given: the % may be the effect or the level left
[15] = tested on: Th17; experiment: Inhibition of C57BL/6 mouse Th17 cell differentiation from CD4+ T cells assessed as reduction in Glut1 protein level; type: functional, cell-based
[16] = tested on: T-cell; experiment: Potency index, ratio of Parthenolide IC50 to test compound IC50 for antiproliferative activity against concanavalin A-stimulated C57BL/6 mouse T cells measured after 48 hrs by CCK8 assay; type: functional
[17] = tested on: Th17; experiment: Inhibition of C57BL/6 mouse Th17 cell differentiation from CD4+ T cells assessed as reduction in HK2 mRNA level; type: functional, cell-based
[18] = target: T1, Pyruvate kinase PKM; experiment: Covalent binding affinity to Cys423 residue of recombinant human PKM2 at 50 uM incubated for 60 mins by LC-MS/MS analysis; details: filed as activator
Target sequence in this assay (P14618 2-531 limits assumed): as above

[19] = tested on: Th17; experiment: Inhibition of C57BL/6 mouse Th17 cell differentiation from CD4+ T cells assessed as reduction in lactate production at […] to 1 uM incubated for 48 hrs by colorimetric analysis; type: functional, cell-based
[20] = target: Pyruvate kinase PKM (Mus musculus) (UniProt P52480); experiment: Induction of thermal stabilization of PKM2 in C57BL/6 mouse CD4+ T cells at 1 uM incubated for 4 hrs at 58 to 64 degreeC by CETSA; type: cell-based; details: CD4+ T cell
[21] = target: Pyruvate kinase PKM (Mus musculus) (UniProt P52480); experiment: Inhibition of PKM2 dimer nuclear translocation in C57BL/6 mouse Th17 cells differentiated from CD4+ T cells assessed as decrease in PKM2 expression in nucleus at 0.1 to 1 uM incubated for 48 hrs by Western blot analysis; type: cell-based; details: dose 0.1-1 µM
[22] = tested on: T-cell; experiment: Antiproliferative activity against concanavalin A-stimulated C57BL/6 mouse T cells measured after 48 hrs by CCK8 assay; type: functional, cell-based; details: C57BL/6, T-cell
[23] = tested on: Th17; experiment: Inhibition of C57BL/6 mouse Th17 cell differentiation from CD4+ T cells assessed as decrease in glucose consumption incubated for 48 hrs by colorimetric analysis; type: functional, cell-based; details: dose 1.0 µM
[24] = tested on: Mus musculus; experiment: Antiinflammatory activity in DSS-induced colitis female C57BL/6 mouse model assessed as reduction in shortening of colon length at 5 mg/kg, ip administered for 12 days with subsequent treatment of DSS for 9 days followed by drinking water for 3 days; type: functional, organism-based; details: time 12.0 day
[25] = tested on: Mus musculus; experiment: Antiinflammatory activity in DSS-induced colitis female C57BL/6 mouse model assessed as improvement in inflammatory cell infiltration at 5 to 10 mg/kg, ip administered for 12 days with subsequent treatment of DSS for 9 days followed by drinking water for 3 days by H and E staining based analysis; type: functional, organism-based; details: dose 5-10 mg/kg, time 12.0 day
[26] = tested on: Mus musculus; experiment: Antiinflammatory activity in DSS-induced colitis female C57BL/6 mouse model assessed as reduction in disease activity index score at 5 to 10 mg/kg, ip administered for 12 days with subsequent treatment of DSS for 9 days followed by drinking water for 3 days; type: functional, organism-based; details: dose 5-10 mg/kg, time 12.0 day
[27] = tested on: Mus musculus; experiment: Antiinflammatory activity in DSS-induced colitis female C57BL/6 mouse model assessed as improvement in goblet cell loss at 5 to 10 mg/kg, ip administered for 12 days with subsequent treatment of DSS for 9 days followed by drinking water for 3 days by H and E staining based analysis; type: functional, organism-based; details: dose 5-10 mg/kg, time 12.0 day
[28] = tested on: Th17; experiment: Inhibition of C57BL/6 mouse Th17 cell differentiation from CD4+ T cells assessed as reduction in IL-21 mRNA expression at 0.1 uM incubated for 96 hrs by qPCR analysis; type: functional, cell-based
[29] = Inhibition of C57BL/6 mouse Regulatory T cells differentiation from CD4+ T cells assessed as frequency of CD4+ Foxp3+ Treg cells at 0.3 uM incubated for 96 hrs by flow cytometric analysis ( Rvb = 24.48 %); type: functional, Regulatory T cell; set-up: scale not given: the % may be the effect or the level left
[30] = target: Pyruvate kinase PKM (Mus musculus) (UniProt P52480); experiment: Activation of PKM2 in C57BL/6 mouse Th17 cells differentiated from CD4+ T cells assessed as induction of PKM2 tetramer formation at 0.1 to 1 uM incubated for 48 hrs by immunoblotting based protein cross linking assay; type: cell-based; details: filed as activator, dose 0.1-1 µM
[31] = target: T1, Pyruvate kinase PKM; experiment: Binding affinity to PKM2 (unknown origin) assessed as dissociation constant by SPR analysis
Target sequence in this assay (P14618 whole entry): as the sequence (P14618 whole entry) above

[32] = tested on: Th17; experiment: Inhibition of C57BL/6 mouse Th17 cell differentiation from CD4+ T cells assessed as reduction in RORC mRNA expression at 0.1 uM incubated for 96 hrs by qPCR analysis; type: functional, cell-based
[33] = tested on: Th17; experiment: Inhibition of C57BL/6 mouse Th17 cell differentiation from CD4+ T cells assessed as reduction in PFK1 protein level; type: functional, cell-based
[34] = tested on: Regulatory T cell; experiment: Inhibition of C57BL/6 mouse Regulatory T cells differentiation from CD4+ T cells assessed as change in Foxp3 mRNA expression at 0.1 to 1 uM incubated for 96 hrs by qPCR analysis; type: functional, cell-based; details: dose 0.1-1 µM
[35] = Inhibition of C57BL/6 mouse Regulatory T cells differentiation from CD4+ T cells assessed as frequency of CD4+ Foxp3+ Treg cells at 0.1 uM incubated for 96 hrs by flow cytometric analysis ( Rvb = 24.48 %); type: functional, Regulatory T cell; set-up: scale not given: the % may be the effect or the level left
[36] = Inhibition of C57BL/6 mouse Regulatory T cells differentiation from CD4+ T cells assessed as frequency of CD4+ Foxp3+ Treg cells at 1 uM incubated for 96 hrs by flow cytometric analysis ( Rvb = 24.48 %); type: functional, Regulatory T cell; set-up: scale not given: the % may be the effect or the level left
[37] = tested on: Th17; experiment: Inhibition of C57BL/6 mouse Th17 cell differentiation from CD4+ T cells assessed as reduction in PFK1 mRNA level; type: functional, cell-based
[38] = Inhibition of C57BL/6 mouse Th17 cells differentiation from CD4+ T cells assessed as frequency of CD4+ IL-17A+ Th17 cells at 1 uM incubated for 96 hrs by flow cytometric analysis (reference value: 23.52 %); type: functional; set-up: scale not given: the % may be the effect or the level left

Sequence of Pyruvate kinase PKM (Mus musculus) (P52480 whole entry): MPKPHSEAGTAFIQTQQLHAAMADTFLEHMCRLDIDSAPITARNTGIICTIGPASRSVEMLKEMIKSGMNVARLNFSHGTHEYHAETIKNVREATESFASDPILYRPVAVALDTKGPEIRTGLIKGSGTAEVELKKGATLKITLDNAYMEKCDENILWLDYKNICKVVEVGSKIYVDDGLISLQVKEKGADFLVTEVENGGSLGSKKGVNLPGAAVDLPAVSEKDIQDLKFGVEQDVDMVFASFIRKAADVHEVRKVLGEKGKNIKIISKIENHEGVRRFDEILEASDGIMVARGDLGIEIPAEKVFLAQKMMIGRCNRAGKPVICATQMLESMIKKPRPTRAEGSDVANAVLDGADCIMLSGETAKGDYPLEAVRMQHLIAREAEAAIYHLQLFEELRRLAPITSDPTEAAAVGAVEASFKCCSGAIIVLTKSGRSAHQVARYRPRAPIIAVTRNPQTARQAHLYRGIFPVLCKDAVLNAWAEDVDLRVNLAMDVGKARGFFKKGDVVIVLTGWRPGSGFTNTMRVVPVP

AC50 [4]: 144 nM
Kd [6]: 0.028 s⁻¹
Ka [13]: 1.12 10^4/Ms
Activity [18]: Active
Activity [20]: Active
inhibition [21]: Active
Activity [30]: Active
Kd [31]: 2480 nM
Structure (SMILES): C=C1C(=O)O[C@H]2[C@H]1CC/C(COC(F)(F)F)=C\CC[C@@]1(C)O[C@@H]21
Activity [1]: 17.11%
Activity [2]: Active
inhibition [3]: Active
inhibition [5]: inactive
inhibition [7]: Active
inhibition [8]: Active
Activity [9]: Active
inhibition [10]: Active
Activity [11]: inactive
Activity [12]: Active
Activity [14]: 14.67%
inhibition [15]: Active
Ratio IC50 [16]: 5
inhibition [17]: Active
inhibition [19]: Active
IC50 [22]: 430 nM
inhibition [23]: Dose-Dependent Effect
Activity [24]: Active
Activity [25]: Active
Activity [26]: Active
Activity [27]: Active
inhibition [28]: Active
Activity [29]: 24.84%
inhibition [32]: Active
inhibition [33]: Active
inhibition [34]: inactive
Activity [35]: 23.97%
Activity [36]: 25.4%
inhibition [37]: Active
Activity [38]: 9.84%
